Assay results taken from publication PMC6684654 (Nature Communications, 2019).
In brackets after ≈: the same amount, converted by molar mass. Several values for one entry are separate records, joined by “and”; a condition that tells them apart may be missing. Identical values can stand only once. Bridge positions count the residues as written; N and C are the ends. Ends that are not written are not given here.

Key:
[1] = test system: NDM-1 K. pneumoniae XJ155018; test: MIC, broth microdilution; assay type: cell-based; settings: Klebsiella pneumoniae, 16 h
Source text: (§1) MIC values were identified through microdilution in sterilized 96-well polypropylene microtiter plates according to the broth microdilution guideline of the Clinical and Laboratory Standards Institute[30]. The test medium was Mueller–Hinton broth (MHB), and the strain concentrations were adjusted to 5 × 10^5 CFU/mL.

[2] = test system: NDM-1 K. pneumoniae XJ155020; test: MIC, broth microdilution; assay type: cell-based; settings: Klebsiella pneumoniae, 16 h
Source text: as §1

[3] = test system: NDM-1 E. coli XJ141015; test: MIC, broth microdilution; assay type: cell-based; settings: Escherichia coli; MHB, 5 × 10^5 CFU/mL, 16 h, 37 °C; read-out: MIC
Source text: as §1

[4] = test system: NDM-1 K. pneumoniae XJ155019; test: MIC, broth microdilution; assay type: cell-based; settings: Klebsiella pneumoniae, 16 h
Source text: as §1

[5] = test system: E. coli ATCC35218; test: MIC, broth microdilution; assay type: cell-based; settings: Escherichia coli, ATCC35218, 16 h
Source text: as §1

[6] = test system: NDM-1 K. pneumoniae XJ155017; test: MIC, broth microdilution; assay type: cell-based; settings: Klebsiella pneumoniae, 16 h
Source text: as §1

[7] = test system: NDM-1 E. coli XJ141026; test: MIC, broth microdilution; assay type: cell-based; settings: Escherichia coli; MHB, 5 × 10^5 CFU/mL, 16 h, 37 °C; read-out: MIC
Source text: as §1

[8] = test system: NDM-1 E. coli XJ141047; test: MIC, broth microdilution; assay type: cell-based; settings: Escherichia coli; MHB, 5 × 10^5 CFU/mL, 16 h, 37 °C; read-out: MIC
Source text: as §1

[9] = test system: K. pneumoniae ATCC13883; test: MIC, broth microdilution; assay type: cell-based; settings: Klebsiella pneumoniae, ATCC13883, 16 h
Source text: as §1

[10] = test system: E. coli ATCC25922; test: MIC, broth microdilution; assay type: cell-based; settings: Escherichia coli, ATCC25922, 16 h
Source text: as §1

[11] = test system: NDM-1 E. coli XJ141026; test: Checkerboard assay / FIC; assay type: cell-based; settings: Escherichia coli
Description: (§2) Synergy in vitro was assessed by checkerboard assays. […] Following incubation, the synergistic/additive effect was determined by calculating the FIC indices (FICI) according to the formula: FICI = (MIC of A in combination/MIC of A) + (MIC of B in combination/MIC of B). The synergy or additive was defined according to standard criteria (FICI ≤ 0.5 was defined as synergistic; 0.5 < FICI ≤ 1 was defined as additive; 1 < FICI ≤ 4 was defined as indifference; FICI > 4 was defined as antagonism)[39].

[12] = test system: E. coli XJ141026-infected BALB/c mice; test: Thanatin + meropenem in sepsis model: survival; assay type: in vivo, mouse (E. coli infection); settings: alone or combined, single i.p. dose, n = 14
Description: BALB/c mice were infected intraperitoneally with 8 × 10^7 CFU of E. coli XJ141026 in 0.1 mL of MHB. […] The model group was intraperitoneally injected with an equivalent volume of PBS. […] In addition, the survival rates were detected as described above.

[13] = test system: seven NDM-1-producing strains; test: Checkerboard assay / FIC, summary; assay type: cell-based, E. coli; K. pneumoniae; settings: in combination with thanatin
Description: as §2

[14] = test system: NDM-1 K. pneumoniae XJ155018; test: Antibiotic susceptibility (MIC), automated identification system; assay type: cell-based; settings: Supplementary Table 2
Source text: (§3) Clinical isolate strains were identified and screened by the Phoenix 100 automated bacterial identification system to rapidly detect antimicrobial resistance. Total DNA was extracted by the TIANamp Bacteria DNA Kit according to the manufacturer’s protocol. The presence of blaNDM-1 was confirmed using a diagnostic kit for NDM-1 (Puruikang Bio Inc., Shenzhen, China) based on fluorescent quantitative polymerase chain reaction assay. According to the instruction, Ct values of less than 37 were considered positive.

[15] = test system: NDM-1 K. pneumoniae XJ155020; test: as above; assay type: cell-based; settings: Supplementary Table 2
Source text: as §3

[16] = test system: NDM-1 E. coli XJ141015; test: as above; assay type: cell-based; settings: Supplementary Table 1
Source text: as §3

[17] = test system: NDM-1 K. pneumoniae XJ155019; test: as above; assay type: cell-based; settings: Supplementary Table 2
Source text: as §3

[18] = test system: NDM-1 K. pneumoniae XJ155017; test: as above; assay type: cell-based; settings: Supplementary Table 2
Source text: as §3

[19] = test system: NDM-1 E. coli XJ141026; test: as above; assay type: cell-based; settings: Supplementary Table 1
Source text: as §3

[20] = test system: NDM-1 E. coli XJ141047; test: as above; assay type: cell-based; settings: Supplementary Table 1
Source text: as §3

[21] = test system: K. pneumoniae ATCC13883; test: as above; assay type: cell-based; settings: Supplementary Table 2
Source text: as §3

[22] = test system: E. coli ATCC25922; test: as above; assay type: cell-based; settings: Supplementary Table 1
Source text: as §3

[23] = test system: NDM-1-producing E. coli XJ141026; test: Bactericidal activity of combination treatment; assay type: cell-based; settings: Mem 18 μM, Tha 0.4 μM, alone or combined, 16 h, listed as Mem
Description: The kill curves were determined as mentioned above to investigate the bactericidal activity of the combination treatment. […] CFUs were counted.

[24] = test system: NDM-1 E. coli XJ141015; test: Kirby Bauer disc diffusion; assay type: cell-based
Source text: (§4) Supplementary Table 1. Identification and antibiotic susceptibility of NDM-1-producing E. coli strains. […]
(§5) Cefoperazone/ sul bact am KB — — 7 (R) 7 (R) 7 (R)
(§6) Nitrofurantoi n KB — — 14 (R) 17 (R) 19 (S) […]
(§7) R, resistant; S, sensitive; M IC , minimum inhibitory concentration; KB, Kirb y Bauer disc diffusion method.
(§8) The unit of M IC is “ μ g/ mL”. The unit of KB is “ mm” .

[25] = test system: NDM-1 E. coli XJ141026; test: Kirby Bauer disc diffusion; assay type: cell-based
Source text: as §4, §5, §6, §7, §8

[26] = test system: NDM-1 E. coli XJ141047; test: Kirby Bauer disc diffusion; assay type: cell-based
Source text: as §4, §5, §6, §7, §8

[27] = test system: NDM-1 K. pneumoniae XJ155018; test: Kirby Bauer disc diffusion; assay type: cell-based
Source text: (§9) Supplementary Ta b l e 2. Identification and anti biotic susceptibility of NDM-1-producing K. pneumonia strains.
(§10) Antibiotics NDM-1 NDM-1 NDM-1 NDM-1 […]
(§11) Cefoperazone/ sul bact am KB 32 (S) 7 (R) 7 (R) 7 (R) 7 (R)
(§12) Nitrofurantoi n KB 21 (S) 7 (R) 9 (R) 10 (R) 9 (R) […]
(§13) R, resistant; S, sensitive; M IC , minimum inhibitory concentration; KB, Kirb y Baue r disc diffusion method .
(§14) The unit of M IC is “μg/mL”. The unit of KB is “mm”.

[28] = test system: NDM-1 K. pneumoniae XJ155020; test: Kirby Bauer disc diffusion; assay type: cell-based
Source text: as §9, §10, §11, §12, §13, §14

[29] = test system: NDM-1 K. pneumoniae XJ155019; test: Kirby Bauer disc diffusion; assay type: cell-based
Source text: as §9, §10, §11, §12, §13, §14

[30] = test system: NDM-1 K. pneumoniae XJ155017; test: Kirby Bauer disc diffusion; assay type: cell-based
Source text: as §9, §10, §11, §12, §13, §14

[31] = test system: K. pneumoniae ATCC13883; test: Kirby Bauer disc diffusion; assay type: cell-based
Source text: as §9, §10, §11, §12, §13, §14

[32] = target: T1, New Delhi metallo-β-lactamase-1 (NDM-1), without signal peptide, amino-terminal histidine tag (RED-tris-NTA second-generation dye on the His-tag (in the MST assay)); test: cell-based or functional assay
T1 chain: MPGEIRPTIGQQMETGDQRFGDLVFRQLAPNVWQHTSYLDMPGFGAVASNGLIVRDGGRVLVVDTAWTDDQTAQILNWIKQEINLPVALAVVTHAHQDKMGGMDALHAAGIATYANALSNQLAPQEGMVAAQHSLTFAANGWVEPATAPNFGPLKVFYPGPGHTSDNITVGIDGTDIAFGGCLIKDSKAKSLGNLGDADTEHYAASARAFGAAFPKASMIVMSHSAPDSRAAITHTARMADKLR

[33] = target: T1, New Delhi metallo-β-lactamase-1 …; test: enzyme inhibition kinetics; 1 nM purified NDM-1 with 10 μM ZnSO4, pre-incubated 20 min at 30 °C with thanatin; imipenem 100-1600 μM; initial rates fitted to the competitive inhibition model; 50 mM HEPES, 0.05% Tween-20; settings: both partners purified
[34] = target: T1, New Delhi metallo-β-lactamase-1 …; test: MST; RED-tris-NTA-labelled apo-NDM-1 (100 nM, mixed 1:1) with serially diluted thanatin; 50 mM HEPES pH 6.8, 0.05% Tween-20; 30 min at room temperature; Monolith NT.115 Pico, medium MST power; settings: both partners purified
[35] = Escherichia coli, read-out: KB disc diffusion
[36] = Klebsiella pneumoniae, read-out: KB disc diffusion

C[C@@H](O)[C@H]1C(=O)N2C(C(=O)O)=C(S[C@@H]3CN[C@H](C(=O)N(C)C)C3)[C@H](C)[C@H]12 [Meropenem]
MIC [1]: 128 µg/mL (≈ 334 µM) | MIC [2]: 128 µg/mL (≈ 334 µM) | MIC [3]: 64 µg/mL (≈ 167 µM) | MIC [4]: 128 µg/mL (≈ 334 µM) | MIC [5]: < 0.125 µg/mL | MIC [6]: > 256 µg/mL | MIC [7]: 64 µg/mL (≈ 167 µM) | MIC [8]: 64 µg/mL (≈ 167 µM) | MIC [9]: < 0.125 µg/mL | MIC [10]: < 0.125 µg/mL | MIC ([11]; in the presence of sub-MIC thanatin): 18 µM | MIC ([11]; meropenem alone): 144 µM | Survival (number of mice) ([12]; Tha 0.1 mg/kg, Mem 10 mg/kg, Day 7): 4 | survival rate ([12]; thanatin 0.1 mg/kg, meropenem 10 mg/kg): 30% | FIC indices, all seven strains [13]: ≤ 1 | effect of combination [13]: synergistic or additive | MIC ([14]; Klebsiella pneumoniae): > 8 µg/mL | susceptibility class (MIC) [14]: R | MIC ([15]; Klebsiella pneumoniae): > 8 µg/mL | susceptibility class (MIC) [15]: R | MIC ([16]; Escherichia coli): > 8 µg/mL | susceptibility class (MIC) [16]: R | MIC ([17]; Klebsiella pneumoniae): > 8 µg/mL | susceptibility class (MIC) [17]: R | MIC ([18]; Klebsiella pneumoniae): > 8 µg/mL | susceptibility class (MIC) [18]: R | MIC ([19]; Escherichia coli): > 8 µg/mL | susceptibility class (MIC) [19]: R | MIC ([20]; Escherichia coli): > 8 µg/mL | susceptibility class (MIC) [20]: R | MIC ([21]; Klebsiella pneumoniae, ATCC13883): ≤ 1 µg/mL | susceptibility class (MIC) [21]: S | MIC ([22]; Escherichia coli, ATCC25922): ≤ 1 µg/mL | susceptibility class (MIC) [22]: S | bacterial count ([23]; replicate 1): 11.61 Log10(CFU/mL) and 4.04E+11 CFU/mL | bacterial count ([23]; replicate 2): 12.11 Log10(CFU/mL) and 1.30E+12 CFU/mL | bacterial count ([23]; replicate 3): 11.93 Log10(CFU/mL) and 8.52E+11 CFU/mL | bacterial count ([23]; replicate 4): 10.88 Log10(CFU/mL) and 7.65E+10 CFU/mL

O=C1CN(/N=C/c2ccc([N+](=O)[O-])o2)C(=O)N1 [Nitrofurantoin]
susceptibility class (KB) [24]: R | susceptibility class (KB) [25]: R | Kb [25, 35]: 17000 µM | susceptibility class (KB) [26]: S | inhibition zone diameter [26, 35]: 19 mM | susceptibility class (KB) [27]: R | inhibition zone diameter [27, 36]: 9 mM | susceptibility class (KB) [28]: R | disc diffusion inhibition zone diameter [28, 36]: 9 mM | susceptibility class (KB) [29]: R | Kb [29, 36]: 10000 µM | susceptibility class (KB) [30]: R | inhibition zone diameter (Kirby-Bauer disc diffusion) [30, 36]: 7 mM | susceptibility class (KB) [31]: S | inhibition zone diameter ([31]; Klebsiella pneumoniae, ATCC13883, read-out: KB disc diffusion): 21 mM

B1: Thanatin (peptide)
peptide: GSKKPVPIIYCNRRTGKCQRM
modifications: disulfide 11-18
notes: thanatin, inducible 21-residue insect peptide; source: synthetic peptide (solid-phase, Fmoc), purified by reverse-phase HPLC to over 98%
inhibition of imipenem hydrolysis by purified NDM-1 (1 nM enzyme, 100 μM imipenem, 12 concentrations of thanatin), IC50 [32]: 3.21 µM | Ki [33]: 2.84 µM | Kd [34]: ~0.71 µM
